Data reported in patent US20250090538A1, “TLR7/8-ANTAGONIST FOR TREATING SJÖGREN'S SYNDROME OR MIXED CONNECTIVE TISSUE DISEASE” (Novartis AG, priority 2022, published 2025).
“Also recorded” adds a separate entry of the source.

What was measured:
TLR7 = target: T1, TLR7 (Homo sapiens, UniProt Q9NYK1); assay: Ex-vivo stimulation of whole blood from SAD and MAD cohorts with a TLR7/8 agonist, B cell activation (CD69); assay type: cell-based
T1 construct: endogenous in cells; host or cells: B cells in whole blood of healthy human subjects (SAD and MAD cohorts)
T1 sequence (Q9NYK1 27-1049): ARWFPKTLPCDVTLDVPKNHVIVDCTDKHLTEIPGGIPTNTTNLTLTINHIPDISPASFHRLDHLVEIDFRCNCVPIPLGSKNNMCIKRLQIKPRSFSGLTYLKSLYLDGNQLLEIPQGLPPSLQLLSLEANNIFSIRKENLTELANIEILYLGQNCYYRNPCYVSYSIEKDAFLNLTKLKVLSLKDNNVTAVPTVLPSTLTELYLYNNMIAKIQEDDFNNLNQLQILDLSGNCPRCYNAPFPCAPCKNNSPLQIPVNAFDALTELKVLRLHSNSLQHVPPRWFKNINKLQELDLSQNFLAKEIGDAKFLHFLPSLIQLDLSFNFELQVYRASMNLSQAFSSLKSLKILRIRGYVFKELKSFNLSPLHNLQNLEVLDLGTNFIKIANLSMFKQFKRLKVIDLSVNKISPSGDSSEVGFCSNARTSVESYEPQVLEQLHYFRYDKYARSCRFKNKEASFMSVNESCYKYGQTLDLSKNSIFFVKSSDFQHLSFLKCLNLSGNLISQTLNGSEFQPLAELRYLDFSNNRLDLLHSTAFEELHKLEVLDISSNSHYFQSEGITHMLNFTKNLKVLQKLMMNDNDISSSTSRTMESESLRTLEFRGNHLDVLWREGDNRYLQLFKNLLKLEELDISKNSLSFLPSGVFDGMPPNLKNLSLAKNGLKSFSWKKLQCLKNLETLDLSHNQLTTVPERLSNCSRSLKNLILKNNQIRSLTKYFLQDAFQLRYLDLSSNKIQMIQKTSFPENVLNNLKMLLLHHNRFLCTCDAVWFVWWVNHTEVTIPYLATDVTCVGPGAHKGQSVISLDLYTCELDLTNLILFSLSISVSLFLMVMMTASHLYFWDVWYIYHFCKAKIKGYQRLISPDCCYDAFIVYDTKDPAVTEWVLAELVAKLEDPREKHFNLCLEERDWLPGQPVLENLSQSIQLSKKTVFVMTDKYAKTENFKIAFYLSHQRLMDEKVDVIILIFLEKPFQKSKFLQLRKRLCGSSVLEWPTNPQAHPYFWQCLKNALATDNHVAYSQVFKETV
Text: (§1) CD69 and TNF are biomarkers intended to inform the pharmacodynamic (PD) effect of compound of Formula (I). Whole blood samples from the SAD and MAD cohorts were ex-vivo stimulated with a TLR7/8 agonist to increase levels of CD69 and TNF.

[1] = First-in-human study, safety and tolerability in healthy volunteers; assay type: in vivo; conditions: healthy subjects
Experimental: (§2) A first-in-human (FIH) study was conducted to assess the safety and tolerability, pharmacokinetics (PK) and pharmacodynamics (PD) of single and multiple doses of compound of Formula (I) as twice daily (bid) oral administration in healthy volunteers, to support further clinical development of compound of Formula (I) in autoimmune diseases. This study also explored the effect of food intake.
(§3) First-in-human study in healthy volunteers (HVs) included the following: • Part A was a randomized, subject-blinded, placebo-controlled, single ascending dose (SAD) study with 10 cohorts. Each cohort received in an ascending order a 1 mg, 3 mg, 10 mg, 20 mg, 40 mg, 80 mg, 160 mg, 320 mg, 640 mg or 1000 mg single dose of compound of Formula (I). • Part B was a randomized, subject-blinded, placebo-controlled, multiple ascending dose (MAD) study with 5 cohorts. Each cohort received in an ascending order a 25 mg, 50 mg, 100 mg, 200 mg or 400 mg dose of compound of Formula (I) b.i.d. for 14 days. • Part C was a randomized, open-label, two-sequence, two-period crossover study with a 200 mg dose of compound of Formula (I) administered each underfed or fasted condition, for the food effect evaluation.

TLR7 and TLR8 = assay: Selectivity for TLR7 and TLR8 over other TLRs and the IL-1 receptor on human PBMCs; assay type: cell-based
TLR8 = target: T2, TLR8 (Homo sapiens, UniProt Q9NR97); assay: Ex-vivo stimulation of whole blood from SAD and MAD cohorts with a TLR7/8 agonist, monocyte TNF production; assay type: cell-based
T2 construct: endogenous in cells; host or cells: monocytes in whole blood of healthy human subjects (SAD and MAD cohorts)
T2 sequence (Q9NR97 27-1041): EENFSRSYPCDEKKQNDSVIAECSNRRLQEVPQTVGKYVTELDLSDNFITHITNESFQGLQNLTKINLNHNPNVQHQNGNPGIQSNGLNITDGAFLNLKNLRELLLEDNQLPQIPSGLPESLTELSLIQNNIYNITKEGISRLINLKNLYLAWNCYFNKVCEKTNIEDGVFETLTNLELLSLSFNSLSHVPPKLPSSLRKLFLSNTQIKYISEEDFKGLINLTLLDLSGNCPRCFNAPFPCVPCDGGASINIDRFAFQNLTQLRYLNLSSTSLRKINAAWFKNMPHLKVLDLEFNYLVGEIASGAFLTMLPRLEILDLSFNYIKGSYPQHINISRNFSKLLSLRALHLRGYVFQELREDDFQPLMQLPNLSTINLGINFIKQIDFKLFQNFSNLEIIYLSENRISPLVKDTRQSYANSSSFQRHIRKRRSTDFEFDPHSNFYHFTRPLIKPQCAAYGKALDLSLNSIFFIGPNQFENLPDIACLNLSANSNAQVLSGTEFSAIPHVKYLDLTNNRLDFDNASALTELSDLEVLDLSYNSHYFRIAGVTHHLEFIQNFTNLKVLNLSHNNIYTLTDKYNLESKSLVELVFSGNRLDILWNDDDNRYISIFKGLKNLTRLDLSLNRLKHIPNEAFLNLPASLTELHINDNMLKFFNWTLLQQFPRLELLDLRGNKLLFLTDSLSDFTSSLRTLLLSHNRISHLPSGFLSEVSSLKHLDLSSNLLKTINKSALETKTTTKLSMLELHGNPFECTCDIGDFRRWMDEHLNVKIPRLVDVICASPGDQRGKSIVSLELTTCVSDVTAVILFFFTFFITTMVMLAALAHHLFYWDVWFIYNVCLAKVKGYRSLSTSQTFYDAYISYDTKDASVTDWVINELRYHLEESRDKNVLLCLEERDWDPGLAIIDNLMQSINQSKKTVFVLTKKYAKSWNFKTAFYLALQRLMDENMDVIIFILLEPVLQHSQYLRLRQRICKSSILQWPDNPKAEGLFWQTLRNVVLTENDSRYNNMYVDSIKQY
Text: as §1

[2] = First-in-human study, pharmacokinetics in healthy volunteers (plasma concentration; SAD, MAD, food effect); assay type: in vivo; conditions: for increase of exposure (plasma concentration) with dose: healthy volunteers
Experimental: as §2, §3

[3] = 200 mg b.i.d. for 14 days, FIH study
[4] = ex-vivo stimulated whole blood, across the dose range (SAD and MAD)

- TLR7 pathway inhibition (TLR7; [3]): full pathway inhibition
- B cell activation (upregulation of CD69) following TLR7 stimulation (TLR7; [4]): inhibited B cell activation
- TLR8 pathway inhibition (TLR8; [3]): full pathway inhibition
- Cmax timing under fed condition ([2]; 200 mg dose, fed condition, FIG. 3): slightly delayed Cmax
- food effect on exposure ([2]; 200 mg dose, fed vs fasted crossover, FIG. 3): No relevant food effect
- half-life ([2]; plasma, oral, human, FIH study, maximum value, read-out: terminal half-life): ≤ 864 min
- increase of exposure (plasma concentration) with dose ([2]; single ascending dose, oral, FIG. 1): dose-proportional for the higher doses
Structure (SMILES): Cc1cc(N2CCc3c(c(C)nn3CC34CCC(NC(=O)[C@@H]5COCCN5)(CC3)CC4)C2)c2cnn(C)c2n1 [compound of Formula (I), (S)-N-(4-((5-(1,6-dimethyl-1H-pyrazolo[3,4-b]pyridin-4-yl)-3-methyl-4,5,6,7-tetrahydro-1H-pyrazolo[4,3-c]pyridin-1-yl)methyl)bicyclo[2.2.2]octan-1-yl)morpholine-3-carboxamide]
- safety and tolerability ([1]; multiple administrations of up to 400 mg b.i.d. for 14 days): safe and well tolerated; also recorded: safe and well-tolerated
- safety and tolerability ([1]; single oral administration of up to 1000 mg): safe and well tolerated; also recorded: safe and well-tolerated
- selectivity for TLR7 and TLR8 over other TLRs and the IL-1 receptor (TLR7 and TLR8): highly selective
- activation of human monocytes to produce TNF following TLR8 stimulation (TLR8; [4]): inhibited activation of human monocytes to produce TNF
- increase of exposure (plasma concentration) with dose ([2]; multiple ascending dose b.i.d. for 14 days, FIG. 2): dose-proportional at steady state for the lower doses
